The nature of series [1]: Stability of oxaliplatin in PB at pH 7.4 (HPLC). Format: physicochemical. Particulars: pH 7.4, 20 °C. As to the method:
The samples were incubated at 20 °C and measured over 25 h. […] RP-HPLC runs were performed using a Waters Acquity UPLC HSS T3 column (100 Å, 1.8 μm, 3.0 mm × 50 mm) on a Dionex Thermo Scientific UltiMate 3000 HPLC system, equipped with a HPG-3400RS binary pump and a DAD-3000RS UV–vis detector. Chromatograms were evaluated at a wavelength of 230 nm. Milli-Q water (mobile phase A) and acetonitrile (mobile phase B), both containing 0.1% TFA, were used as eluents. The flow rate was consistent at 0.6 mL/min for all measurements using the following gradient: 0–0.5 min A 99:1 B, 0.5–5.5 min linear gradient to A 1:99 B, 5.5–6.5 min A 1:99 B, 6.5–9.2 min A 99:1 B.

The next series has as its system CT26 colon cancer cells. On the set-up: method as in Schueffl et al. Particulars: already described in earlier studies; ref Schueffl et al.; cited from earlier work.
On the set-up of series [2]: method as in Schueffl et al. The settings on record: oxaliplatin data used from earlier paper, ref Schueffl et al., cited from earlier work.
In the next series the target is T1, albumin (Homo sapiens, UniProt P02768).
T1 construct: purchased Sigma-Aldrich A8763
On the set-up: method as in Barbas et al. Particulars: equimolar DFSA/albumin ratios; ref Barbas et al.; cited from earlier work.

Setting [3] is: serum platinum, i.v. 9 mg/kg oxaliplatin.

T1 sequence (P02768 25-609): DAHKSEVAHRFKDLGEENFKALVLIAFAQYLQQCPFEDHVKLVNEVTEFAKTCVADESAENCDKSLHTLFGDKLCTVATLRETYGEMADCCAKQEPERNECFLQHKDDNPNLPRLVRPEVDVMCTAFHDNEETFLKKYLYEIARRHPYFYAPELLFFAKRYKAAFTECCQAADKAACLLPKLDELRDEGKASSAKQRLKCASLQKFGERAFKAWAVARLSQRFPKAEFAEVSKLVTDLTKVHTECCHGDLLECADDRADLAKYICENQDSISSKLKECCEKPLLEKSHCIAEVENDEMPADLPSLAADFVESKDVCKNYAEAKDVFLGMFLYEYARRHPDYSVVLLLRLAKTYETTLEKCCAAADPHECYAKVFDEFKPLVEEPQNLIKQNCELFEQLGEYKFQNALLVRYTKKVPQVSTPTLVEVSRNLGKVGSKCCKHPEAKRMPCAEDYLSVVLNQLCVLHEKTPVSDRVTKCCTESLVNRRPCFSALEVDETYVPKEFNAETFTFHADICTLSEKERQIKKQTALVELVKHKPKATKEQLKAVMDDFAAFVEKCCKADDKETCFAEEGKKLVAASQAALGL

As to `O=C1[O][Pt]2([NH][C@@H]3CCCC[C@H]3[NH]2)[O]C1=O` [oxaliplatin], in series [1], the “Hydrolysis after 25 h” value was around 15%. The “Effect on overall survival in the CT26 model” value in the series on CT26 colon cancer cells is “does not lead to prolonged overall survival”. Also, in series [2] (setting [3]), the AUCPt_0-24 is 26.6 mg·h/kg and the “AUCPt_0-∞” value was 37.5 mg·h/kg. For the same molecule, in series [2] (serum platinum, tmax=0.08 h), the Cmax is given as 6.17 mg/kg. In addition, the Half-life in series [2] (terminal half-life) was 14.3 h. For the same molecule, the Vz in series [2] (terminal phase) is listed as 2.42 kg/kg. Also, the “Percentage of AUCPt_0-∞ extrapolated from tlast to infinity” value in series [2] (tlast=24 h) is recorded as 29.0%. Besides, the CL in series [2] (total body clearance) is reported as 0.118 kg/h/kg.

With `O=C(O)C1=CCCCC1S(=O)(=O)Nc1ccc(F)cc1F` (stereo not shown) [DFSA, 6-(N-(2,4-difluorophenyl)-sulfamoyl)-cyclohex-1-ene-1-carboxylic acid], the “Albumin binding after 24 h” value at albumin is “less than 25%”.

The record behind these values is article PMC12261219, “Comparative Evaluation of Thiol- and Amine-Conjugating Moieties for Endogenous Albumin Binding after Intravenous Administration” (ACS Pharmacology & Translational Science, 2025).
